Patent publication US6677310B1, “Ring-expanded nucleosides and nucleotides” (Nabi, priority 1999, dated 2004)
Read-outs that look alike come from different tables or passages of the source.

Assays:
IGROV1 = test: SRB anti-cancer assay, Ovarian Cancer; assay type: cell-based, human; details: 48 h; for CC50: read-out: LC50 (the source's name)
HL-60(TB) = HL-60(TB) (Leukemia), 48 h
Protocol: Briefly, cell suspensions that were diluted according to the particular cell type and the expected target cell density (5000-40,000 cells per well based on cell growth characteristics) were added by pipette (100 μl) into 96-well microtiter plates. Inoculates were allowed a preincubation period of 24h at 37° C. for stabilization. Dilutions at twice the intended test concentrations of the test compounds were added at time zero in 100 μl aliquots to the microtiter plate wells. The plates were incubated for 48 h in 5% CO2 atmosphere and 100% humidity. The cells were assayed by using the sulforhodamine B assay (Rubinstein, L. V. et al. J. Natl. Cancer Inst. 82:1113-118, 1990; Skehan, P. et al., J. Natl. Cancer Inst. 82:1107-1112, 1990). The plates were read by a plate reader. The following parameters were calculated from the optical densities:
GI50, concentration of drug that causes 50% growth inhibition; where (T−T0)/(C−T0)×100=50

PC-3 = test: SRB anti-cancer assay, Prostate Cancer; assay type: cell-based, human; details: PC-3 (Prostate Cancer), 48 h
MCF7 = test: SRB anti-cancer assay, Breast Cancer; assay type: cell-based, human; details: 48 h; for CC50: read-out: LC50 (the source's name)
MOLT-4 = test: SRB anti-cancer assay, Leukemia; assay type: cell-based, human; details: MOLT-4 (Leukemia), 48 h; for CC50: read-out: LC50 (the source's name)
[1] = test system: panel of cancer cell lines; test: In vitro anti-cancer assay, panel of cancer cell lines (sulforhodamine B); assay type: cell-based, human; details: leukemia, non-small cell lung, colon, CNS, melanoma, ovarian, renal, prostate and breast cancer cell lines; read-out: GI50 values, range over the panel
HT29 = test: SRB anti-cancer assay, Colon Cancer; assay type: cell-based, human; details: 48 h; for CC50: read-out: LC50 (the source's name)
[2] = test system: herpes simplex virus (HSV)-1; test: Antiviral test against HSV-1; assay type: cell-based
Protocol: (§1) These compounds were also tested for their effects on HIV (Weislow, O. , et al., J. Natl. Cancer Inst., 81:577-586, 1989), herpes simplex virus (HSV)-1, HSV-2, cytomegalovirus (CMV), Varicella Zoster virus (VZV) and Epstein-Barr virus (EBV) replication (National Institute of Allergy and Infectious Diseases (NIAID), NIH, Bethesda, Md.).

RXF 393 = test: SRB anti-cancer assay, Renal Cancer; assay type: cell-based, human; details: RXF 393 (Renal Cancer), 48 h; for CC50: read-out: LC50 (the source's name)
[3] = test system: Varicella Zoster virus (VZV); test: Antiviral test against VZV; assay type: cell-based
Protocol: as §1

HSV-2 = test: Antiviral test against HSV-2; assay type: cell-based
Protocol: as §1

U251 = test: SRB anti-cancer assay, CNS Cancer; assay type: cell-based, human; details: 48 h; for CC50: read-out: LC50 (the source's name)
BT-549 = test: SRB anti-cancer assay, Breast Cancer; assay type: cell-based, human; details: BT-549 (Breast Cancer), 48 h; for CC50: read-out: LC50 (the source's name)
HOP-92 = assay type: cell-based, human; details: HOP-92 (Non-Small Cell Lung Cancer), 48 h; for CC50: read-out: LC50 (the source's name)
HIV = test: Antiviral test against HIV; assay type: cell-based
Protocol: as §1

Hepatitis B virus (HBV) = test: Anti-HBV assay in 2.2.15 cells (virion DNA, HBV RI); assay type: cell-based; details: for HBV RI, percentage of control / Virion DNA, percentage of control: 10 μM, day 9, 2.2.15 cells
Protocol: The anti-HBV assays were performed according to the published protocol of Korba and Milman, (Korba, B. E.; Milman, G. Antiviral Res., 15, 217 1991), using cultures of 2.2.15 cells. In brief, the assay consisted of (a) seeding the chronically HBV-producing human liver cells (Acs et al. Proc. Nat. Acad. Sci., 84, 464 1987) into 24-well tissue culture plates, and growing to confluence, (b) adding test compounds daily for a continuous 9-day period, harvesting culture media after day 9 and (c) lysing treated cells 24 hours following day 9 of treatment for the analysis of extracellular virion DNA and intracellular HBV genomic forms.
(§2) Anti-HBV activity and the toxicity against confluent 2.2.15 cells were determined by the previously described procedure (Korba, B. E., et al. Antivir. Res., 19:55-70, 1992; Korba, B. E., et al. Antivir. Res., 15:217-228, 1991). Briefly, confluent cultures of HBV transfected 2.2.15 cells were maintained on either 96-well or 24-well flat-bottomed tissue culture plates in RPMI 1640 medium with 2% fetal bovine serum (FBS). The cells were treated with test compounds daily for nine consecutive days. The culture media were harvested on day 9 to quantify the amount of virion DNA. On day 10, the cells were lysed to quantify the amount of intracellular HBV replicative intermediates (RI). The quantification of virion DNA and the HBV RI were done by blot hybridization methods (Korba, B. E., et al. Antivir. Res., 19:55-70, 1992; Korba, B. E., et al. Antivir. Res., 15:217-228, 1991). Cellular toxicity against separate cultures of confluent 2.2.15 cells was measured after treatment with the compounds for nine days under identical culture conditions as those used for the antiviral assay (Korba, B. E., et al. Antivir. Res., 19:55-70, 1992). Uptake of neutral red dye by treated cells was compared with dye uptake by untreated control cells (Korba, B. E., et al. Antivir. Res., 19:55-70, 1992).

Epstein-Barr virus (EBV) = test: Antiviral test against EBV; assay type: cell-based
Protocol: as §1

[4] = test system: HBV ribonucleic acids (RNA); test: HBV RNA levels in 2.2.15 cells (blot hybridization); assay type: cell-based, Hepatitis B virus; details: 10 μM, day 9, 2.2.15 cells
Protocol: as §2
These compounds were evaluated for their ability to inhibit viral RNA synthesis in 2.2.15 cells. Since HBV uses host cellular RNA polymerase II during the transcription of viral RNA from the covalently closed circular HBV DNA during its replication, any effect on the synthesis of viral RNA by these compounds would mean interference with the cellular RNA polymerase which could lead to unacceptable cellular toxicity.

[5] = target: T1, adenosine deaminase (Type IV) from bovine spleen (Bos taurus, UniProt P56658); test: Inhibition of adenosine deaminase (Example 9); assay type: biochemical; details: Lineweaver-Burk plot
T1 construct: adenosine deaminase (Type IV) from bovine spleen (a suspension in 3.2 M (NH4)2SO4, pH 6); from tissue; host or cells: bovine spleen
Excerpt: The concentration of inhibitor, the title compound, used for the present study ranged from 4.6×10^−5 to 9.2×10^−5 M. The enzyme concentration used for each of the assays was 0.0235 units/mL. As computed by the Lineweaver-Burk plot.

[6] = extracellular HBV virion DNA, 10 fold inhibition, 9 days, read-out: EC90 Virion
[7] = extracellular HBV virion DNA, 9 days, read-out: EC50 Virion

T1 sequence (P56658 whole entry): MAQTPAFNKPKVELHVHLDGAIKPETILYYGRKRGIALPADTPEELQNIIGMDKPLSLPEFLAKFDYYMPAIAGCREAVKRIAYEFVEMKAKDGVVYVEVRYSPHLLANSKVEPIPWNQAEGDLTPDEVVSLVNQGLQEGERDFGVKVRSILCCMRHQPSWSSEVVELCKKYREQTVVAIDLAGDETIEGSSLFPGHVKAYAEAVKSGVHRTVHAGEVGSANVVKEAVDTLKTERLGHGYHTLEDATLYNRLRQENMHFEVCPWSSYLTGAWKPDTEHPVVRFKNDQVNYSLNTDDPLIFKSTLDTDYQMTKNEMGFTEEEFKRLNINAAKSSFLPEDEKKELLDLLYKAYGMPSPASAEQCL

N=c1nc(N)c2ncn([C@@H]3O[C@H](COC(=O)c4ccccc4)[C@@H](OC(=O)c4ccccc4)[C@H]3OC(=O)c3ccccc3)c2c(N)n1 [4,8-Diamino-6H-6-imino-1(2′,3′,5′-tri-O-benzoyl-β-D-ribofuranosyl)imidazo[4,5-e][1,3]diazepine]
GI50 (IGROV1): 5.13 µM | TGI (IGROV1): 20.3 µM | CC50 (IGROV1): 66.7 µM | GI50 (HL-60(TB)): 4.01 µM | TGI (HL-60(TB)): 18.3 µM | CC50 (HL-60(TB); read-out: LC50): 83.7 µM | GI50 (PC-3): 4.46 µM | TGI (PC-3): 16.6 µM | GI50 (MCF7): 1.47 µM | TGI (MCF7): 3.12 µM | CC50 (MCF7): 6.61 µM | GI50 (MOLT-4): 2.31 µM | TGI (MOLT-4): 7.08 µM | CC50 (MOLT-4): > 100 µM | GI50 [1]: 0.1 to 10 µM | GI50 (HT29): 2.58 µM | TGI (HT29): 10.3 µM | CC50 (HT29): 42.3 µM

N=c1[nH]c(=O)c2ncn([C@@H]3O[C@H](CO)[C@@H](O)[C@H]3O)c2c(=O)[nH]1 [Compound 14-1, 6-Imino-6H-1-β-D-ribofuranosyl-4,5,7,8-tetrahydroimidazo[4,5-e][1,3]diazepine-4,8-dione]
antiviral activity against HSV-1 [2]: no antiviral activity | TGI (RXF 393): >100 µM | CC50 (RXF 393): > 100 µM | antiviral activity against VZV [3]: no antiviral activity | antiviral activity against HSV-2 (HSV-2): no antiviral activity | GI50 (U251): > 100 µM | TGI (U251): >100 µM | CC50 (U251): > 100 µM | GI50 (BT-549): > 100 µM | TGI (BT-549): >100 µM | CC50 (BT-549): > 100 µM | GI50 (HOP-92): > 100 µM | TGI (HOP-92): >100 µM | CC50 (HOP-92): > 100 µM | antiviral activity against HIV (HIV): no antiviral activity | HBV RI, percentage of control (Hepatitis B virus (HBV)): 15 ± 2 % | Virion DNA, percentage of control (Hepatitis B virus (HBV)): 4 ± 1 % | EC90 (Hepatitis B virus (HBV); assay repeated three times, read-out: average EC90 for HBV virion inhibition): 1.29 µM | EC90 (Hepatitis B virus (HBV); [6]): 0.989 ± 0.11 µM | EC50 (Hepatitis B virus (HBV); [7]): 0.131 µM | EC90 (Hepatitis B virus (HBV); intracellular HBV DNA replicative intermediates, 10 fold inhibition, 9 days, read-out: EC90 HBV RI): 7.3 ± 0.7 µM | EC50 (Hepatitis B virus (HBV); intracellular HBV DNA replicative intermediates, 9 days, read-out: EC50 HBV RI): 0.604 µM | EC50 (Hepatitis B virus (HBV); transfected hepatoma cell line 2.2.15, Example 13, read-out: EC50 (anti-HBV activity)): 0.17 µM | GI50 (MOLT-4): > 100 µM | TGI (MOLT-4): >100 µM | CC50 (MOLT-4): > 100 µM | antiviral activity against EBV (Epstein-Barr virus (EBV)): no antiviral activity | 2.1 Kb RNA, percentage of control [4]: 96 ± 7% | 3.6 Kb RNA, percentage of control [4]: 89 ± 9%

N=c1nc(N)c2ncn([C@@H]3O[C@H](CO)[C@@H](O)[C@H]3O)c2c(N)n1 [Compound 14-2, 4,8-Diamino-6H-6-imino-1-β-D-ribofuranosylimidazo[4,5-e][1,3]diazepine]
GI50 (IGROV1): 14 µM | TGI (IGROV1): 30.5 µM | CC50 (IGROV1): 66.3 µM | antiviral activity against HSV-1 [2]: no antiviral activity | mode of inhibition of adenosine deaminase [5]: competitive inhibitor | GI50 (PC-3): 16.6 µM | TGI (PC-3): 44.5 µM | CC50 (PC-3; read-out: LC50 (the source's name)): > 100 µM | GI50 (MCF7): 5.81 µM | TGI (MCF7): 22.3 µM | CC50 (MCF7): 63.4 µM | GI50 (RXF 393): 7.51 µM | TGI (RXF 393): 25.6 µM | CC50 (RXF 393): 74.2 µM | antiviral activity against VZV [3]: no antiviral activity | antiviral activity against HSV-2 (HSV-2): no antiviral activity | GI50 (U251): 20.1 µM | TGI (U251): 45 µM | CC50 (U251): > 100 µM | GI50 (BT-549): 15.6 µM | TGI (BT-549): 32.2 µM | CC50 (BT-549): 66.4 µM | GI50 (HOP-92): 19.2 µM | TGI (HOP-92): 40 µM | CC50 (HOP-92): 83.7 µM | antiviral activity against HIV (HIV): no antiviral activity | HBV RI, percentage of control (Hepatitis B virus (HBV)): 6 ± 1 % | Virion DNA, percentage of control (Hepatitis B virus (HBV)): 1 ± 1 % | EC90 (Hepatitis B virus (HBV); [6]): 4.7 ± 0.5 µM | EC50 (Hepatitis B virus (HBV); [7]): 0.397 ± 0.03 µM | antiviral activity against EBV (Epstein-Barr virus (EBV)): no antiviral activity | GI50 [1]: 1 to 10 µM | 2.1 Kb RNA, percentage of control [4]: 96 ± 8% | 3.6 Kb RNA, percentage of control [4]: 103 ± 9% | GI50 (HT29): 10.4 µM | TGI (HT29): 35.7 µM | CC50 (HT29): > 100 µM
